Article PMC5444710, “Enhancement of radiosensitivity by the novel anticancer quinolone derivative vosaroxin in preclinical glioblastoma models” (Oncotarget, 2017)

Experiments:
T98G xenografts = assay: Subcutaneous xenograft model: tumor weight and time to progression; format: in vivo, female CD1-nu/nu mice; settings: for HR (95% CI) for tumor progression: T98G
Protocol: (§1) Female CD1-nu/nu mice, at 6 weeks of age, were purchased from Charles River (Milan, Italy) under the guidelines established by our institution (University of L’Aquila, Medical School and Science and Technology School Board Regulations, complying with Italian government regulation n.116, January 27, 1992, for the use of laboratory animals). All mice received subcutaneous flank injections (2 each) of 1 × 10^6 U251, U87MG, and T98G cells representing models for MGMT-negative and MGMT-positive cells. Tumor growth was assessed biweekly by measuring tumor diameters with a Vernier caliper (length × width). Tumor weight was calculated according to the formula tumor weight (mg) = tumor volume (mm^3) = d2 × D/2, where d and D are the shortest and longest diameters, respectively. The effects of the treatments were assessed as previously described. At about 10 days after the tumor injection, 30 mice with tumor volumes of 0.5–0.8 cm^3 were randomly divided into 6 groups (5 mice per group with 2 tumors each): (1) control (vehicle); (2) vosaroxin (10 mg/kg every 5 days for 5 weeks intravenous [IV] injection into tail vein; (3) radiotherapy (RT; 4 Gy delivered in a single fraction); (4) vosaroxin in combination with RT; (5) temozolomide (16 mg/kg 5 consecutive days) and (6) temozolomide in combination with RT. Anesthetized tumor-bearing mice received focal irradiation. Irradiation was delivered using an x-ray linear accelerator at a dose rate of 200 cGy/min at room temperature. All mice were shielded with a specially designed lead apparatus to allow irradiation to the right hind limb. At the end of the study (35 days after the start of treatments), animals were sacrificed by carbon dioxide inhalation and tumors were then removed surgically. Half of the tumor was directly frozen in liquid nitrogen for protein analysis and the other half was fixed in paraformaldehyde overnight for immunohistochemical analyses.
(§2) The following parameters were used to quantify the antitumor effects of different treatments as previously described: tumor volume, measured throughout the experiment; tumor weight, measured at the end of the experiment; tumor progression, defined as an increase of greater than 50% of tumor volume with respect to baseline; and time to progression (TTP), defined as the time until tumor progression was observed from baseline. Tumor size was measured with calipers and the TTP of a single tumor was calculated. TTP data were used to generate Kaplan-Meier curves for progression. This method of analysis was described previously, and may reduce both inter-subject variability resulting from differences in engraftment efficacy as well as intra-subject variability in response.
(§3) In vivo drug combination studies were evaluated using CalcuSyn. For CI calculations of dual administration, the values of % cell kill (%CK) for a fixed tumor volume were determined by the log CK (LCK). LCK was calculated as LCK = (T − C) / (3.32 × Td), where Td represented the mean control group doubling time required to reach a fixed tumor volume, expressed in days. T and C were the mean times in days required to reach the same fixed tumor volume in the treated group and the control group, respectively. CK was calculated as %CK = [1 − (1 − 10LCK)] × 100. Tumor growth delay (TGD) was calculated as %TGD = [(T − C) / C] × 100, where T and C were the same values as those reported by Bruzzese et al..

U87MG xenografts = assay: as above; format: in vivo, female CD1-nu/nu mice; settings: for HR (95% CI) for tumor progression: U87MG
Protocol: as §1, §2, §3

U251 xenografts = assay: as above; format: in vivo, female CD1-nu/nu mice; settings: for HR (95% CI) for tumor progression: U251
Protocol: as §1, §2, §3

GBM cell lines = assay: Clonogenic survival assays (abstract statement); format: cell-based; settings: Homo sapiens
Protocol: For clonogenic survival assays, exponentially growing cells (70% confluence) were cultured in regular media and treated with vosaroxin, at the appropriate concentrations, or vehicle (final dimethyl sulfoxide concentration of 0.1%) for 48 hours. Tumor cells were then irradiated at room temperature with increasing doses of radiation (0–6 Gy) using an x-ray linear accelerator (dose rate of 200 cGy/min). Nonirradiated controls were handled identically to the irradiated cells with the exception of the radiation exposure. […] Colonies containing more than 50 cells were counted. The plating efficiency was calculated as the number of colonies observed divided by the number of cells plated. The surviving fraction was calculated as the number of colonies formed in the treated dishes compared with the number formed in the control. The survival curves were analyzed using SPSS statistical software (Chicago, IL, USA) by means of a fit of the data by a weighted, stratified, linear regression, according to the linear-quadratic formula: S(D)/S(O) = exp-(αD + βD2). The cell survival enhancement ratio was calculated as the ratio of the mean inactivation dose under control conditions divided by the mean inactivation dose after treatment as previously described.

## CN[C@H]1CN(c2ccc3c(=O)c(C(=O)O)cn(-c4nccs4)c3n2)C[C@@H]1OC [vosaroxin]
T98G xenografts; T98G xenografts, day 35, VSR 10 mg/kg q 5 d for 5 wk IV, TMZ 16 mg/kg 5 consecutive days, RT single 4 Gy
  final tumor weight reduction compared with vehicle controls: 60%
T98G xenografts; VSR vs TMZ + RT
  HR (95% CI) for tumor progression: 1.0 (0.4–2.4)
T98G xenografts; VSR vs TMZ
  HR (95% CI) for tumor progression: 0.5 (0.2–1.3)
T98G xenografts; VSR vs VSR + RT
  HR (95% CI) for tumor progression: 4.7 (1.5–14.6)
U87MG xenografts; U87MG xenografts, day 35, VSR 10 mg/kg q 5 d for 5 wk IV, TMZ 16 mg/kg 5 consecutive days, RT single 4 Gy
  final tumor weight reduction compared with vehicle controls: 44%
U87MG xenografts; VSR vs TMZ + RT
  HR (95% CI) for tumor progression: 0.8 (0.3–2.0)
U87MG xenografts; VSR vs TMZ
  HR (95% CI) for tumor progression: 0.6 (0.2–1.5)
U87MG xenografts; VSR vs VSR + RT
  HR (95% CI) for tumor progression: 4.3 (1.2–15.6)
U251 xenografts; U251 xenografts, day 35, VSR 10 mg/kg q 5 d for 5 wk IV, TMZ 16 mg/kg 5 consecutive days, RT single 4 Gy
  final tumor weight reduction compared with vehicle controls: 42%
U251 xenografts; VSR vs TMZ + RT
  HR (95% CI) for tumor progression: 4.2 (1.4–12.5)
U251 xenografts; VSR vs TMZ
  HR (95% CI) for tumor progression: 0.6 (0.3–1.6)
U251 xenografts; VSR vs VSR + RT
  HR (95% CI) for tumor progression: 4.0 (1.3–12.1)
GBM cell lines
  IC50: 0.01 to 0.1 µM
